The values that follow come from paper PMC4096598 (PLoS ONE, 2014).

“And” between values parts separate entries of the source, which are not always exact repeats. Identical values can stand only once. Like-named read-outs stand apart in the source and are kept apart here. Marks after values point to notes of the source that are not given here. Ends that are not written are not given here.

For assay [1], the system named is Mycobacterium tuberculosis H37Rv (ATCC 27294). Conditions: literature value ref Rastogi, et al., 1996 [55]; cited from earlier work.
For assay [2], the system named is Staphylococcus aureus (ATCC 25923). The following applies: ATCC 25923, 10 h.
For assay [3] the test system is unchanged.
Assay [4] relates to Mycobacterium tuberculosis H37Rv (ATCC 27294). Conditions: 24 h.
Assay [5] concerns Escherichia coli (ATCC 25922).
In the next assay the test system is human red blood cells. Put plainly: Hemolytic assay. The format is cell-based. The following applies: 1 h at room temperature; for hemolysis of human erythrocytes: relative to 10% Triton X-100, average of at least four independent experiments; for IC50: human red blood cells, absorbance 570 nm, vs 10% Triton X-100, mean and 95% confidence intervals, NO = no observed hemolytic activity at 100 µM, read-out: Hemolysis (IC50). As to the method: Hemolytic activity was determined by incubating suspensions of human red blood cells with serial dilutions of each selected peptides. Red blood cells were rinsed several times in PBS by centrifugation for 3 min at 3,000 g until the OD of the supernatant reached the OD of the control (PBS only). Red blood cells were counted by a hemocytometer and adjusted to 7.7×10^6±0.3×10^6 cells/mL. Red blood cells were then incubated at room temperature for 1 h in 10% Triton X-100 (positive control), in PBS (blank), or with amphipathic peptides at concentrations of 0.4, 0.8, 1.6, 3.1, 6.2, 12.5 and 25 µM, only for Pin2 [14] and Pin2 [17] the 50 and 100 µM concentrations were evaluated. The samples were then centrifuged at 10,000 g for 5 min, the supernatant was separated from the pellet, and its absorbance measured at 570 nm. The relative optical density compared to that of the suspension treated with 10% Triton X-100 was defined as the percentage of hemolysis.
The experimental values represent means ± standard deviations. The hemolytic constants (IC50) were obtained using a non-linear regression where the data was fit to a Boltzmann sigmoid equation. To determine statistically significant differences, an analysis of variance (ANOVA) followed by post hoc testing using the Tukey's method was performed using the software package Prism 4 (GraphPad, Inc., USA). Statistical significances were accepted at p<0.05.

Assay [6] concerns Escherichia coli (ATCC 25922). The following applies: ATCC 25922, 10 h.

As to `CC[C@@H](CO)NCCN[C@@H](CC)CO` [Ethambutol], the “MIC Mycobacterium tuberculosis H37Rv” value in assay [1] was 0.5 µg/mL and 2.5 µM.
In the case of `CO[C@H]1/C=C/O[C@@]2(C)Oc3c(C)c(O)c4c(O)c(c(/C=N/N5CCN(C)CC5)c(O)c4c3C2=O)NC(=O)/C(C)=C\C=C\[C@H](C)[C@H](O)[C@@H](C)[C@@H](O)[C@@H](C)[C@H](OC(C)=O)[C@@H]1C` [Rifampicin], in assay [1], the “MIC Mycobacterium tuberculosis H37Rv” value was 0.4 µg/mL and 0.5 µM.
In the case of FWGALAKGALKLIGPGSLFSSFSKKD [Pin2 [GPG]], the entries for the “MIC S. aureus” value in assay [2] and in assay [3] were 12.5 µM and 25 µM, respectively. In addition, the “MIC Mycobacterium tuberculosis H37Rv” value in assay [4] worked out at 29 ± 9 µM. Further, the “MIC E. coli” value stood at 25 µM in assay [5] and 12.5 µM in assay [6]. Besides, the “hemolysis of human erythrocytes” value with human red blood cells (peptide at 25 µM) was 30%.
One may read the IC50 as the concentration at which inhibition is half-maximal. Turning to FWGALAKGALKLIGSLFSSFSKKD [Pin2 [G]], the “MIC S. aureus” value in assay [2] and in assay [3] was 12.5 µM throughout. The “MIC Mycobacterium tuberculosis H37Rv” value in assay [4] is on record as 18.7 µM. Moreover, the “MIC E. coli” value in assay [5] and in assay [6] was 12.5 µM each time. The IC50 with human red blood cells turned out to be 1400 nM. Besides, the “hemolysis of human erythrocytes” value in the assay on human red blood cells (peptide at 25 µM) was determined as 100%.
As to “FWGALAKGALKLIPSLFSSFSKKD [Pin2, Pandinin 2, reference compound]”, the “MIC S. aureus” value in assay [2] came out at 12.5 µM; in assay [3] it was 37.5 µM. Moreover, the “MIC Mycobacterium tuberculosis H37Rv” value in assay [4] came to 22.1 ± 8.6 µM. In addition, the “MIC E. coli” value is listed as 18.8 µM in assay [5] and 12.5 µM in assay [6]. Also, the IC50 with human red blood cells worked out at 3300 nM. Further, in the assay on human red blood cells (peptide at 25 µM), the “hemolysis of human erythrocytes” value is 91%.
Take FWGLKGLKGPGKFSKKL [Pin2 [17]]: the “MIC S. aureus” value is listed as over 25 µM in assay [2] and 80 µM in assay [3]. In addition, the “MIC E. coli” value in assay [5] is on record as 25 µM; in assay [6], >25 ^† µM.
As to FWGLKGLKKFSKKL [Pin2 [14]], the “MIC S. aureus” value in assay [2] is given as >25 ^† µM; in assay [3], over 300 µM. Further, the “MIC Mycobacterium tuberculosis H37Rv” value in assay [4] turned out to be 11.92 ± 3.7 µM. Moreover, the “MIC E. coli” value in assay [5] and in assay [6] was 25 µM in each case. Besides, the “hemolysis of human erythrocytes” value in the assay on human red blood cells (peptide at 100 µM) was found to be 25%.
